Assays:
Test in all cases: Biofilm assay (Calgary Biofilm Device), MBEC
MRSA = assay type: cell-based, methicillin-resistant S. aureus; details: for MBEC: MRSA 24 h biofilm, 24 h challenge; for percent weight to volume of ionic liquid that corresponds to the MBEC value: MRSA biofilm
Protocol: (§1) Biofilms of each test organism were grown in the Calgary Biofilm Device (commercially available as the MBEC Assay™ for Physiology & Genetics, Innovotech Inc., Edmonton, Alberta, Canada). The device, a micro-titre plated based assay, consists of two parts; a microtitre plate containing the inoculated test medium and a polystyrene lid with 96 identical pegs on which the microbial biofilm forms under gyrorotary incubation. The biofilm assay was conducted according to the MBEC™ assay protocol as supplied by the manufacturer, with slight modifications. Inocula of each test organism were prepared in MHB as described above and adjusted to provide a final inoculum density of ˜10^7 CFU ml^−1 (as confirmed by viable count). 150 μl of the inoculated media was transferred to each well of the 96-well microtitre plate and the assay plate lid, bearing 96 pegs was placed into the microtitre plate. The MBEC assay plates were placed in a gyrorotary incubator (37° C., 95% relative humidity) for 24 h to permit growth and comparison of 24 h biofilms of each test strain. Positive and negative growth controls were included in each plate (6 replicates). Initial and 24 h planktonic viable counts were measured, as were 24 h biofilm counts, expressed as CFU peg^−1, according to manufacturers instructions. After 24 h, the peg lid of the MBEC assay plate was gently rinsed three times. After rinsing, the peg lid of the MBEC assay was transferred to a ‘challenge’ plate. Serial dilutions of each imidazolium salt were prepared in 200 μl of MHB containing various concentrations of IL in each well. Positive growth control and sterility control were included in each assay plate. […] Biofilms were dislodged into recovery media by sonication for 5 minutes and the peg lid discarded. The recovery plate is incubated overnight and visually checked after 24 h for turbidity. In addition, optical density measurements for each plate were recorded at 550 nm. Clear wells were taken as evidence of biofilm eradication and the MBEC value was assigned as the lowest concentration at which no growth was observed after 24 h incubation. Plates were incubated for a further 24 h to confirm biofilm eradication concentrations.

E-MRSA 15 = assay type: cell-based; details: E-MRSA 15 24 h biofilm, 24 h challenge
Protocol: as §1

B. cenocepacia J2315 = assay type: cell-based; details: B. cenocepacia J2315 24 h biofilm, 24 h challenge
Protocol: as §1

S. aureus ATCC 29213 = assay type: cell-based; details: S. aureus ATCC 29213 24 h biofilm, 24 h challenge
Protocol: as §1

C. tropicalis NCTC 7393 = assay type: cell-based; details: C. tropicalis NCTC 7393 24 h biofilm, 24 h challenge
Protocol: as §1

P. mirabilis NCTC 12442 = assay type: cell-based; details: P. mirabilis NCTC 12442 24 h biofilm, 24 h challenge
Protocol: as §1

[1] = system: S. epidermidis ATCC 35984; assay type: cell-based; details: for MBEC: S. epidermidis ATCC 35984 24 h biofilm, 24 h challenge; for percent weight to volume of ionic liquid that corresponds to the MBEC value: S. epidermidis ATCC 35984 biofilm
Protocol: as §1

P. aeruginosa PA01 = assay type: cell-based; details: for MBEC: P. aeruginosa PA01 24 h biofilm, 24 h challenge; for percent weight to volume of ionic liquid that corresponds to the MBEC value: P. aeruginosa PA01 biofilm
Protocol: as §1

E. coli PIII = assay type: cell-based; details: for MBEC: E. coli PIII 24 h biofilm, 24 h challenge; for percent weight to volume of ionic liquid that corresponds to the MBEC value: E. coli PIII biofilm
Protocol: as §1

K. aerogenes NCTC 7427 = assay type: cell-based; details: K. aerogenes NCTC 7427 24 h biofilm, 24 h challenge
Protocol: as §1

SMILES	MBEC (MRSA)	percent weight to volume of ionic liquid that corresponds to the MBEC value (MRSA)	MBEC (E-MRSA 15)	MBEC (B. cenocepacia J2315)	MBEC (S. aureus ATCC 29213)	MBEC (C. tropicalis NCTC 7393)	MBEC (P. mirabilis NCTC 12442)	MBEC [1]	percent weight to volume of ionic liquid that corresponds to the MBEC value [1]	MBEC (P. aeruginosa PA01)	percent weight to volume of ionic liquid that corresponds to the MBEC value (P. aeruginosa PA01)	MBEC (E. coli PIII)	percent weight to volume of ionic liquid that corresponds to the MBEC value (E. coli PIII)	MBEC (K. aerogenes NCTC 7427)
CCCCCCCCCCn1cc[n+](C)c1.[Cl-] [C10MIMCl, 1-decyl-3-methylimidazolium chloride]	4829 µM	(0.125) % w/v	1207 µM	19318 µM	2415 µM	19318 µM	9659 µM	4829 µM	(0.125) % w/v	2415 µM	(0.063) % w/v	9659 µM	(0.25) % w/v	19318 µM
CCCCCCCCCCCCn1cc[n+](C)c1.[Cl-] [C12MIMCl, 1-dodecyl-3-methylimidazolium chloride]	545 µM	(0.016) % w/v	272 µM	2179 µM	272 µM	8714 µM	4357 µM	272 µM	(0.008) % w/v	1089 µM	(0.031) % w/v	1089 µM	(0.031) % w/v	2179 µM
CCCCCCCCCCCCCCn1cc[n+](C)c1.[Cl-] [C14MIMCl, 1-tetradecyl-3-methylimidazolium chloride]	124 µM	(0.004 % w/v	248 µM	496 µM	124 µM	248 µM	1984 µM	124 µM	(0.004 % w/v	496 µM	(0.016 % w/v	124 µM	(0.004 % w/v	248 µM

— patent US20110144079A1, “ANTIMICROBIAL SYSTEM” (priority 2008, published 2011)
